Key:
[1] = molecular target: T1, unphosphorylated T315I Abl kinase domain (Mus musculus, UniProt P00520, T315I); assay: c-Abl T315I 0P bioassay (pyruvate kinase/lactate dehydrogenase coupled enzyme assay); type: biochemical; details: zero phosphorylation state (0P), 10 μM ATP, read-out: AbI T315I 0P IC50
T1 construct: purified and unphosphorylated T315I Abl kinase domain; made in house; host or cells: E. coli BL21(DE3) (Codon+RIL or pSA0145 strain)
T1 sequence (P00520 242-493 T315I limits assumed): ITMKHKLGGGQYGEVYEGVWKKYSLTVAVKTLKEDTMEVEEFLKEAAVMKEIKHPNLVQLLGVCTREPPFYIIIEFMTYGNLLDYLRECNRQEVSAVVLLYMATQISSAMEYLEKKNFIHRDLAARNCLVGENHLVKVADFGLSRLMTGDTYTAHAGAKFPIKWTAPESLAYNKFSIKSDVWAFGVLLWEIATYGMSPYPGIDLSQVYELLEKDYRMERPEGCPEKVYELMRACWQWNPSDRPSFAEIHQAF
From the text: Although the first of these examples uses the kinase domain of a mutant form of Abl T315I (“Abl T315I KD”), the kinase assays may use various forms of mutant and wild type enzymes, including, for example, the entire protein, the kinase domain, or a portion thereof (e.g. Abl Y393F). The kinases used in the assays may also be of varying phosphorylation states. In the c-Abl example, a mutant kinase at a zero phosphorylation state was used. c-Abl Pyruvate Kinase/Lactate Dehydrogenase Coupled Enzyme Assay
In the c-Abl Pyruvate Kinase (PK)/Lactate Dehydrogenase (LDH) Coupled Assay the protein kinase dependant phosphorylation of a substrate peptide was coupled to the oxidation of NADH. The oxidation of NADH to NAD+ was detected by monitoring a decrease in absorbance at 340 nm.
Materials: Abl substrate peptide=EAIYAAPFAKKK (SEQ ID NO: 1)—OH (Biopeptide, San Diego, Calif.); pNADH (Sigma Cat#N-8129, FW=709.4); 2M MgC12; 1M HEPES buffer, pH 7.5; Phosphoenolpyruvate (PEP) (Sigma Cat#P-7002, FW=234); Lactate dehydrogenase (LDH) (Worthington Biochemical Cat#2756); Pyruvate Kinase (PK) (Sigma Cat#P-9136); ATP (Sigma Cat#A-3377, FW=551); Greiner 384-well UV star plate; and purified and unphosphorylated T315I Abl kinase domain.
Stock Solutions: 10 mM NADH (7.09 mg/ml in miliQH2O) made fresh daily; 10 mM Abl substrate peptide (13.4 mg/ml in miliQH2O) stored at −20° C.; 100 mM HEPES buffer, pH 7.5 (5 ml 1M stock+45 ml miliQH2O); 100 mM MgCl2 (5 ml 2M MgCl2+95 ml dH2O); 100 MM PEP (23.4 mg/ml in dH2O) stored at −20° C.; 10 mM ATP (5.51 mg/ml in dH2O) stored at −20° C. (diluted 50 μl into total of 10 ml miliQH2O daily=50 μM ATP working stock); 1000 U/ml PK (U/mg varies with lot) flash-frozen under liquid N2 and stored at −80° C.; and 1000 U/ml LDH (U/mg varies with lot) flash-frozen under liquid N2 and stored at −80° C.
Standard Assay Setup for 384-well format (50 μl reaction): 300 μM NADH; 10 mM MgCl2; 2 mM PEP; 45U/ml PK; 60 U/ml LDH; 200 μM Abl substrate peptide; 2.5 μl test compound (in DMSO); 2 μg/ml Abl kinase domain; 10 μM ATP; 100 mM HEPES buffer. Positive controls contained DMSO with no test compound. Negative controls contained 5 μl of 0.5M EDTA (50 mM in the assay). The dephosphorylated form of the c-Abl T315I mutant was used in the biochemical screening assays. The kinase reaction was initiated at time t=0 by the addition of ATP.
Activity was measured by following the time-dependent loss of NADH by absorbance spectroscopy at 340 nm. The linear portion of the resulting progress curve was then analyzed by linear regression to get the activity in absorbance units/time, reported as the slope of that best fit line (moles/unit time can be calculated from using molar extinction coefficient for NADH at 340 nm, 6250M^−1 cm^−1).
Data was evaluated using the equation: Z′=1−[3*(σ++σ−)/|μ+−μ−|](Zhang, et al., 1999 J Biomol Screening 4(2) 67-73), where μ denotes the mean and σ the standard deviation. The subscript designates positive or negative controls. The Z′ score for a robust screening assay should be ≧0.50. The typical threshold=μ+−3*σ+. Any value that falls below the threshold was designated a “hit”.
Dose response was analyzed using the equation: y=min+{(max−min)/(1+10^[compound]−logIC50)}, where y is the observed initial slope, max=the slope in the absence of inhibitor, min=the slope at infinite inhibitor, and the IC50 is the [compound] that corresponds to ½ the total observed amplitude (Amplitude=max−min).
To measure modulation, activation, or inhibition of Abl KD, a test compound was added to the assay at a range of concentrations. Inhibitors may inhibit Abl KD activity at an IC50 in the micromolar range, the nanomolar range, or, for example, in the subnanomolar range.
An open-reading frame for c-Abl was amplified from a Mus musculus (mouse) cDNA library prepared from freshly harvested mouse liver using a commercially available kit (invitrogen) by PCR using the following primers: […]
The c-Abl T315I KD (kinase domain) was purified as follows. […]

Ba/F3 cells, ABL1 T315I = Ba/F3 cells, ABL1 T315I (Homo sapiens, UniProt P00519, T315I, cells depend on it); assay: 96-well XTT cell survival assay, Ba/F3 ABL1 T315I; type: cell-based; details: 72 hours, read-out: ABL1 T315I XTT [Ba/F3] IC50
Protocol: (§1) MV4-11 and THP cells were maintained in Iscove's Modified Dulbecco's Medium supplemented with 10% fetal bovine serum (FBS) and penicillin/streptomycin, Ba/F3 cells were maintained in RPMI 1640 supplemented with 10% FBS, penicillin/streptomycin and 5 ng/ml recombinant mouse IL-3.
(§2) Compounds were tested in the following assays in duplicate.
(§3) 96-well XTT assay: Cells (e.g. BaF3 315I, M351I, or E255K cells) were grown in growth media containing various concentrations of compounds (duplicates) on a 96-well plate for 72 hours at 37° C. The starting cell number was 5000-8000 cells per well and volume was 120 μl. At the end of the 72-hour incubation, 40 μl of XTT labeling mixture (50:1 solution of sodium 3′-[1-(phenylamino-carbonyl)-3,4-tetrazolium]-bis(4-methoxy-6-nitro)benzene sulfonic acid hydrate and Electron-coupling reagent: PMS (N-methyl dibenzopyrazine methyl sulfate) were added to each well of the plate. After an additional 2-6 hours of incubation at 37° C., the absorbance reading at 405 nm with background correction at 650 nm was measured with a spectrophotometer.

Ba/F3 cells, ABL1 WT = Ba/F3 cells, ABL1 WT (Homo sapiens, UniProt P00519); assay: 96-well XTT cell survival assay, Ba/F3 ABL1 WT; type: cell-based; details: 72 hours, read-out: ABL1 WT XTT [Ba/F3] IC50
Protocol: as §1, §2, §3

Row | SMILES | IC50 [1] | GI50 (Ba/F3 cells, ABL1 T315I) | GI50 (Ba/F3 cells, ABL1 WT)
1 | COc1ccccc1-c1c[nH]c2ncc(-c3cncc(C(O)C(=O)N(C)C)n3)cc12 (stereo not shown) | > 500 nM |  | 
2 | COc1ccccc1-c1n[nH]c2ncc(-c3cccc(C(O)C(=O)N(C)CC#N)c3)cc12 (stereo not shown) | < 50 nM | > 1000 nM | < 1000 nM
3 | CN(C)C(=O)C(O)c1cncc(-c2cnc3[nH]cc(-c4cc(C(F)(F)F)nn4C)c3c2)c1 (stereo not shown) | > 500 nM |  | 
4 | COc1ccccc1-c1n[nH]c2ncc(-c3cccc(C(C(=O)N(C)C)N(C)C)c3)cc12 (stereo not shown) | 50 to 500 nM |  | 
5 | COc1ccccc1-c1n[nH]c2ncc(-c3cccc(C(O)C(=O)N4CC(O)C4)c3)cc12 (stereo not shown) | < 50 nM | > 1000 nM | > 1000 nM
6 | COc1ccccc1-c1c[nH]c2ncc(-c3cccc(C(O)c4nccn4C)c3)cc12 (stereo not shown) | < 50 nM | < 1000 nM | < 1000 nM
7 | COc1ccc(F)cc1-c1c[nH]c2ncc(-c3cncc(C(O)C(=O)N(C)C)c3)cc12 (stereo not shown) | < 50 nM | < 1000 nM | < 1000 nM
8 | CN(C)C(=O)C(O)c1cncc(-c2cnc3[nH]cc(-c4cccc5c4OC(F)(F)O5)c3c2)c1 (stereo not shown) | < 50 nM | > 1000 nM | < 1000 nM
9 | COc1ccccc1-c1n[nH]c2ncc(-c3cccc(C(O)C(=O)NCCN(C)C)c3)cc12 (stereo not shown) | < 50 nM | > 1000 nM | < 1000 nM
10 | COc1ccccc1-c1n[nH]c2ncc(-c3cccc(C(C)(O)C(=O)N(C)C)c3)cc12 (stereo not shown) | < 50 nM | > 1000 nM | > 1000 nM
11 | CN(C)C(=O)C(O)c1cncc(-c2cnc3[nH]cc(-c4ccncc4)c3c2)c1 (stereo not shown) | 50 to 500 nM | > 1000 nM | > 1000 nM
12 | CN(C)C(=O)C(O)c1cncc(-c2cnc3[nH]cc(-c4ccno4)c3c2)c1 (stereo not shown) | < 50 nM | > 1000 nM | > 1000 nM
13 | COc1ccccc1-c1c[nH]c2ncc(-c3cccc(C(CC(=O)N(C)CCN(C)C)N4CCS(=O)(=O)CC4)c3)cc12 (stereo not shown) | > 500 nM |  | 
14 | COc1ccccc1-c1n[nH]c2ncc(-c3cccc(C(=O)C(=O)N(C)C)c3)cc12 | < 50 nM | > 1000 nM | > 1000 nM
15 | COc1ccccc1-c1n[nH]c2ncc(-c3cccc(C(C)C(=O)N(C)C)c3)cc12 (stereo not shown) | < 50 nM | > 1000 nM | > 1000 nM
16 | COc1ccccc1-c1c[nH]c2ncc(-c3cccc(C(C(=O)N4CCC[C@@H]4CO)N4CCNCC4)c3)cc12 (stereo partly shown) | < 50 nM | > 1000 nM | > 1000 nM
17 | COc1ccccc1-c1n[nH]c2ncc(-c3cccc(C(O)c4ncccc4F)c3)cc12 (stereo not shown) | < 50 nM | < 1000 nM | < 1000 nM

Row | SMILES | IC50 [1] | GI50 (Ba/F3 cells, ABL1 T315I) | GI50 (Ba/F3 cells, ABL1 WT)
18 | COc1ccccc1-c1n[nH]c2ncc(-c3cccc(C(O)CN)c3)cc12 (stereo not shown) | < 50 nM |  | 
19 | CCN(C)C(=O)C(O)c1cncc(-c2cnc3[nH]cc(-c4ccccc4OC)c3c2)c1 (stereo not shown) | < 50 nM | < 1000 nM | < 1000 nM
20 | COc1ccccc1-c1n[nH]c2ncc(-c3cccc(C(C(=O)N4CCC(O)C4)N(C)C)c3)cc12 (stereo not shown) | 50 to 500 nM |  | 
21 | CN(C)C(=O)C(O)c1cncc(-c2cnc3[nH]cc(-c4cnn(C)c4)c3c2)c1 (stereo not shown) | 50 to 500 nM |  | 
22 | COc1ccccc1-c1c[nH]c2ncc(-c3cccc(C(CC(=O)N(C)C)N4CCS(=O)(=O)CC4)c3)cc12 (stereo not shown) | > 500 nM |  | 
23 | CC(=O)Nc1ccc(-c2c[nH]c3ncc(-c4cncc(C(O)C(=O)N(C)C)c4)cc23)cc1 (stereo not shown) | < 50 nM | > 1000 nM | 
24 | COc1ccccc1-c1n[nH]c2ncc(-c3cccc([C@@H]4OCO[C@H]4C(C)C)c3)cc12 | < 50 nM |  | 
25 | CN(C)C(=O)C(O)c1cncc(-c2cnc3[nH]cc(-c4cccc(Cl)c4)c3c2)c1 (stereo not shown) [drawing 459] | < 50 nM |  | < 1000 nM
26 | CN(C)C(=O)C(O)c1cncc(-c2cnc3[nH]cc(-c4ncco4)c3c2)c1 (stereo not shown) | 50 to 500 nM |  | 
27 | Cc1noc(C)c1-c1c[nH]c2ncc(-c3cncc(C(O)C(=O)N(C)C)c3)cc12 (stereo not shown) | 50 to 500 nM |  | 
28 | COc1ccccc1-c1n[nH]c2ncc(-c3cccc(C(C(=O)N(C)C(C)C)N(C)C)c3)cc12 (stereo not shown) | 50 to 500 nM |  | 
29 | CN(C)C(=O)C(O)c1cncc(-c2cnc3[nH]cc(-c4ccc(C(F)(F)F)cc4)c3c2)c1 (stereo not shown) | 50 to 500 nM |  | 
30 | CNC(C(=O)N1CCC(O)C1)c1cccc(-c2cnc3[nH]nc(-c4ccccc4OC)c3c2)c1 (stereo not shown) | < 50 nM |  | 
31 | COc1ccccc1-c1n[nH]c2ncc(-c3cccc(C(OC)C(=O)N4CC(O)C4)c3)cc12 (stereo not shown) | < 50 nM |  | 
32 | CN(C)C(=O)C(O)c1cncc(-c2cnc3[nH]cc(-c4cccc(C#N)c4)c3c2)c1 (stereo not shown) | 50 to 500 nM |  | 
33 | CN(C)C(=O)C(O)c1cncc(-c2cnc3[nH]cc(-c4ccn(-c5ccccc5)n4)c3c2)c1 (stereo not shown) | 50 to 500 nM |  | 
34 | CN(C)C(=O)C(=O)c1cncc(-c2cnc3[nH]cc(-c4ccnn4C)c3c2)c1 | > 500 nM |  | 

From patent US8242280B2, “Fused ring heterocycle kinase modulators” (SGX Pharmaceuticals, Inc., priority 2007, dated 2012)
